Experiment [1] addresses T1, Cannabinoid receptor 2 (Homo sapiens, UniProt P34972). Nature of the experiment: Displacement of [3H]CP-55940 from human CB2 receptor expressed in CHO cells. Format: cell-based.
Experiment [2] deals with Cannabinoid receptor 1 (Homo sapiens, UniProt P21554). Nature of the experiment: Displacement of [3H]CP-55940 from human CB1 receptor expressed in CHO cells. In kind it is cell-based.
The target of experiment [3] is T1, Cannabinoid receptor 2. Kind of experiment: Agonist activity at human CB2 receptor expressed in CHO cells by [35S]GTP-gamma-S binding assay. Format: functional, cell-based.
Experiment [4] deals with T1, Cannabinoid receptor 2. Nature of the experiment: Agonist activity at human CB2 receptor expressed in CHO cells by [35S]GTP-gamma-S binding assay relative to CP-55940. Format: functional, cell-based.
Experiment [5] is filed under the species Homo sapiens. Kind of experiment: Selectivity for human CB2 receptor over human CB1 receptor.

Some results are limits rather than exact numbers.

T1 sequence (P34972 whole entry): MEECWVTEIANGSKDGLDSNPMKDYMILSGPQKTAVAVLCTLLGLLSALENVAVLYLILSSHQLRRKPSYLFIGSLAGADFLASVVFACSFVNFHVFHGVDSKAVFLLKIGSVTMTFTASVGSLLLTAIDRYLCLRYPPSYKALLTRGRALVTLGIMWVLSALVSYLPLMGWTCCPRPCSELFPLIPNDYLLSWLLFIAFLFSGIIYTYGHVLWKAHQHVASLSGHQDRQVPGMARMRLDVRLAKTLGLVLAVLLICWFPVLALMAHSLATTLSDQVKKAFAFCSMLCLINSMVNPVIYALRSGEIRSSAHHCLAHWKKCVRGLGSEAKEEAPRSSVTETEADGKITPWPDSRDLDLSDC
Chain of Cannabinoid receptor 1 (P21554 whole entry): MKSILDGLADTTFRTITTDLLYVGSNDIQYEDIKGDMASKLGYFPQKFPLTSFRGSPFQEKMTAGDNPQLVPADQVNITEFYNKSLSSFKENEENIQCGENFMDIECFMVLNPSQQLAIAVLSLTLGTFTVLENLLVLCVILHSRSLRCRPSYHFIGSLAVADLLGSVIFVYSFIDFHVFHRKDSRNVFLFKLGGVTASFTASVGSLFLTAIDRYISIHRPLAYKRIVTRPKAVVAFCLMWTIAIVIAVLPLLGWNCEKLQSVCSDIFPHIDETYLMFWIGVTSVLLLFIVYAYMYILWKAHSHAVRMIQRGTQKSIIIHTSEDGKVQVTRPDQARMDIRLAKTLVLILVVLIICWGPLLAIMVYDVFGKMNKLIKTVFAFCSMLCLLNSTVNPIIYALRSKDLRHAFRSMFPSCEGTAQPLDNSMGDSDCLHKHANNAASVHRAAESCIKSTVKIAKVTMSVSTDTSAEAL

Turning to `Cc1c(C(C)(C)C)s/c(=N\S(=O)(=O)c2ccccc2)n1C`, the IC50 is 340 nM in experiment [1] and > 50000 nM in experiment [2]. Besides, in experiment [3], the response was half-maximal at 110 nM (EC50). In experiment [4], this compound came in with an Emax of 110%.

`Cc1c(C(C)(C)C)s/c(=N\S(=O)(=O)c2ccccc2)n1CC1CC1` displayed an IC50 in experiment [1] of 65 nM.

Turning to `CC(C)=CCn1c(C)c(C(C)(C)C)s/c1=N\S(=O)(=O)c1ccccc1`, the IC50 in experiment [1] is 170 nM.

For the compound `C=CCn1c(C)c(C(C)(C)C)s/c1=N\S(=O)(=O)c1ccccc1`, in experiment [1], the IC50 is 75 nM.

As to `Cc1c(C(C)(C)C)s/c(=N\S(=O)(=O)c2ccc3ccccc3c2)n1CC1CC1`, in experiment [1], the IC50 is 490 nM.

As for `Cc1c(C(C)(C)C)s/c(=N\S(=O)(=O)c2cccc3ccccc23)n1CC1CC1`, the IC50 in experiment [1] was 16 nM; in experiment [2], 1700 nM. Further, a half-maximal response in experiment [3] (EC50) required 7.2 nM. This compound returned an Emax in experiment [4] of 100%. Besides, the Ratio IC50 in experiment [5] stood at 106.

`C#CCn1c(C)c(C(C)(C)C)s/c1=N\S(=O)(=O)c1ccccc1` showed an IC50 in experiment [1] of 210 nM.

Source of the values: ChEMBL document CHEMBL1149669, “Sulfonamide derivatives as new potent and selective CB2 cannabinoid receptor agonists” (Bioorg Med Chem Lett, 2007).
